The source made the active and inactive calls. The rule behind the calls is not given here.
How the values were obtained:
[1] = species: Homo sapiens; experiment: Selectivity index, ratio of Ki for human TSPO A147T mutant expressed in HEK293 cell membranes to Ki for human TSPO expressed in HEK293 cell membranes; type: cell-based
[2] = molecular target: Translocator protein (Homo sapiens, UniProt P30536); experiment: Displacement of [3H]PK11195 from wild-type human TSPO expressed in HEK293 cell membranes after 90 mins by scintillation counting method; parameters: species or system Cell membrane
Sequence of Translocator protein (P30536 whole entry): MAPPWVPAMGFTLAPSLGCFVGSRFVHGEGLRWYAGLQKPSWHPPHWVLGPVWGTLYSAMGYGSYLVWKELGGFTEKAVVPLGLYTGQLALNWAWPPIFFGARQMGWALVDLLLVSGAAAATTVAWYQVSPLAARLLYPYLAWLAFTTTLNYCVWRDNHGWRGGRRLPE

SMILES: C#CCN(C)C(=O)c1nc2ccccc2n1Cc1ccc(OC)cc1
- Ratio Ki [1]: > 3
- Ki [2]: 3280 nM

SMILES: CCN(CC)C(=O)CN(Cc1ccccc1)c1cc(C)cc(C)c1
- Ratio Ki [1]: 4.2
- Ki [2]: 1010 nM

SMILES: CCN(CC)C(=O)c1nc2ccccc2n1Cc1ccc(OC)cc1
- Ratio Ki [1]: > 3.3
- Ki [2]: 3060 nM

SMILES: CCN(CC)C(=O)CN(Cc1ccc(OCCF)cc1)c1cc(C)cc(C)c1
- Ratio Ki [1]: > 7.7
- Ki [2]: 1290 nM

SMILES: CC(=O)N(Cc1ccc(OCCF)cc1)c1cc(C)cc(C)c1
- Ratio Ki [1]: 14.3
- Ki [2]: 275 nM

SMILES: CCN(CC)C(=O)c1nc2ccccc2n1Cc1ccc(Cl)cc1
- Ratio Ki [1]: < 0.3
- Ki [2]: > 10000 nM

SMILES: CC(=O)N(Cc1ccc(OCc2ccccc2)cc1)c1cc(C)cc(C)c1
- Ratio Ki [1]: 2
- Ki [2]: 377 nM

SMILES: CC(=O)N(Cc1ccc(OC(C)C)cc1)c1cc(C)cc(C)c1
- Ratio Ki [1]: 3.8
- Ki [2]: 823 nM

SMILES: CCN(CC)C(=O)CN(Cc1ccc(OC(C)C)cc1)c1cc(C)cc(C)c1
- Ratio Ki [1]: > 4.5
- Ki [2]: 2240 nM

SMILES: CCN(CC)C(=O)c1cc2cc(C)ccc2n1Cc1ccc(O)cc1
- Ratio Ki [1]: inactive
- Ki [2]: > 10000 nM

SMILES: CCN(CC)C(=O)c1cc2cc(C)ccc2n1Cc1cn[nH]n1
- Ratio Ki [1]: inactive
- Ki [2]: > 10000 nM

SMILES: CCN(CC)C(=O)CN(Cc1ccc(OC)cc1)c1cc(C)cc(C)c1
- Ratio Ki [1]: 3.5
- Ki [2]: 1200 nM

SMILES: COc1ccc(CN(C(C)=O)c2cc(C)cc(C)c2)cc1
- Ratio Ki [1]: 5.6
- Ki [2]: 500 nM

SMILES: CCN(CC)C(=O)CN(Cc1ccc(OCc2ccccc2)cc1)c1cc(C)cc(C)c1
- Ratio Ki [1]: 4.2
- Ki [2]: 433 nM

SMILES: C#CCN(C)C(=O)c1cc2cc(NC(C)=O)ccc2n1Cc1ccc(OC)cc1
- Ratio Ki [1]: 1.4
- Ki [2]: 2070 nM

SMILES: CCN(CC)C(=O)c1cc2cc(C)ccc2n1Cc1ccc(OCc2ccccc2)cc1
- Ratio Ki [1]: inactive
- Ki [2]: > 10000 nM

SMILES: CCN(CC)C(=O)c1nc2ccccc2n1Cc1ccc(OC)nc1
- Ratio Ki [1]: inactive
- Ki [2]: > 10000 nM

SMILES: CCN(CC)C(=O)c1nc2ccccc2n1Cc1ccccc1
- Ratio Ki [1]: inactive
- Ki [2]: > 10000 nM

SMILES: CC(=O)N(Cc1ccccc1)c1cc(C)cc(C)c1
- Ratio Ki [1]: 4.6
- Ki [2]: 275 nM

SMILES: C#CCN(C)C(=O)c1nc2ccccc2n1Cc1ccc(Cl)cc1
- Ratio Ki [1]: inactive
- Ki [2]: > 10000 nM

SMILES: C#CCN(C)C(=O)c1cc2cc(C)ccc2n1Cc1ccc(OC)nc1
- Ratio Ki [1]: 0.1
- Ki [2]: > 10000 nM

SMILES: CCN(CC)C(=O)Cn1c(-c2ccc(OC)cc2)nc2c(C)cc(C)cc21
- Ratio Ki [1]: 4.2
- Ki [2]: 208 nM

SMILES: C#CCN(C)C(=O)c1cc2cc(NS(C)(=O)=O)ccc2n1Cc1ccc(OC)cc1
- Ratio Ki [1]: 0.5
- Ki [2]: 1500 nM

SMILES: CCN(CC)C(=O)Cn1c(-c2ccc(OC)cc2)cc2c(C)cc(C)cc21
- Ratio Ki [1]: 5.7
- Ki [2]: 114 nM

SMILES: CN(Cc1ccccc1)C(=O)c1nc2ccccc2n1Cc1ccc(Cl)cc1
- Ratio Ki [1]: inactive
- Ki [2]: > 10000 nM
